Source: patent US10869899B2, “Isolated cells and populations comprising same for the treatment of CNS diseases” (Ramot at Tel-Aviv University Ltd., priority 2005, dated 2020)

Test system: differentiated hBMSc
Experiment: Effect of IL-1β and cabergoline on GDNF production and secretion (ELISA)
Type: cell-based, human
Settings: cabergoline 130 pg/ml, IL-1β 100 pg/ml, added 24 hours after initiation of differentiation, 48 hours
Method: Astrocyte differentiation: To induce astrocyte differentiation, 1×10^6 cells were cultured in […]. Cells were replaced with pre-differentiation medium for 48 hours (DMEM supplemented with SPN, 2 mM L-glutamine, 20 ng/ml human epidermal growth factor hEGF (R& D, Systems, Minneapolis, Minn.), 20 ng/ml human basic fibroblast growth factor (hbFGF) and N2 supplement (insulin 5 μg/ml, progesterone 20 nM, putrescin 100 μM, selenium 30 nM, transferrin 100 μg/ml). After 48 hours, the pre-differentiation medium was changed to differentiation medium, (DMEM supplemented with SPN, 2 mM L-glutamine, 1 mM dibutyryl cyclic AMP dbcAMP, 0.5 mM isobutylmethylxanthine IBMX (Sigma-Aldrich, St. Louis, Mo., USA), 5 ng/ml human platelet derived growth factor PDGF (peprotech), and 50 ng/ml human neuregulin 1-β1 NRG1-β1-GGF-2). […]
GDNF and BDNF analysis: At the end of the differentiating procedure described above, supernatant was collected from the plate and cells were harvested and counted. The amount of GDNF or BDNF in the cell's lysate and culture supernatants was quantified by using a GDNF or BDNF ImmunoAssay System (Promega) according to the manufacture's protocol. The absorbance at 450 nm was recorded on the Microplate Reader (BioRad Model 550) and the values were used to produce the curve of the GDNF or BDNF standard. […] ELISA results were calculated according to 10^6 cells per plate.

| Compound | production and secretion of GDNF by differentiated cells following addition |
| --- | --- |
| IL-1beta: factor known to upregulate GDNF, added to the differentiation medium | marked enhanced production and secretion of GDNF |
| C=CCN1C[C@H](C(=O)N(CCCN(C)C)C(=O)NCC)C[C@@H]2c3cccc4[nH]cc(c34)C[C@H]21 [cabergoline] | marked enhanced production and secretion of GDNF |
